This passage reports logP results from the OPERA property sets (Mansouri et al. 2018).

The molecule `O=C1CC(=O)N(c2ccccc2)O1` came in with a logP of 0.54.
The value for `NC(=O)NS(=O)(=O)Cc1ccccc1` was 0.24.
In turn, `O=C1CNC(=O)N1c1ccccc1` registered a logP of 0.04.
`O=C1NC(=O)C(c2ccccc2)O1` (configuration not stated) returned a logP of 1.09.
For the molecule `O=C1NC(=O)N(Cc2ccccc2)C1=O`, the logP amounted to 1.19. The logP values of the last two molecules are within 0.2 log units of each other.
Take `O=C1CC(=O)C(c2ccccc2)O1` (configuration not stated): the logP came out at 1.47.
For `O=C1NC(=O)C(c2ccccc2)C1=O` (configuration not stated), the logP amounted to 2.26.
`O=c1[nH]c(=O)n(-c2ccccc2)o1` registered a logP of 1.74.
`O=C1NC(=O)C(Cc2ccccc2)S1` (configuration not stated) showed a logP of 1.98.
With `O=C1CC(=O)C(c2ccccc2)N1` (configuration not stated), the logP was 0.48.
In turn, `O=C1NC(=O)N(c2ccccc2)C1=O` had a lipophilicity (logP) of 0.6.
The molecule `O=C1NC(=O)C(Cc2ccccc2)N1` (configuration not stated) registered a logP of 0.6.
The molecule `O=C1CN(Cc2ccccc2)C(=O)N1` displayed a logP of 0.76.
In the case of `O=C1NC(=O)C(Cc2ccccc2)O1` (configuration not stated), the logP was 1.2.
As for `NS(=O)(=O)NC(=O)Cc1ccccc1`, the logP was 0.31.
The molecule `O=C1CC(=O)N(Cc2ccccc2)C1` displayed a lipophilicity (logP) of 0.76.
The value for `O=C1CN(c2ccccc2)C(=O)N1` was 0.83.
